# Assay results reported in patent US9750747B2, “Treatments involving eslicarbazepine acetate or eslicarbazepine” (BAIL-PORTELA & CA, S.A., priority 2011, dated 2017).
# Entries after “also recorded” stand apart in the source; their conditions may differ. Where two headings read alike, the source gives them in different places.
# Legend:
# α1β2γ2 GABA receptors = target: T1, α1β2γ2 GABA receptors (Homo sapiens, UniProt P14867+P18507+P47870); experiment: whole-cell patch-clamp, sub-maximal GABA inward currents in stably transfected Ltk cells; format: cell-based; settings: Table 1
# T1 construct: host or cells: Ltk cells, expression induced with dexamethasone
# T1 sequence (P14867 28-456): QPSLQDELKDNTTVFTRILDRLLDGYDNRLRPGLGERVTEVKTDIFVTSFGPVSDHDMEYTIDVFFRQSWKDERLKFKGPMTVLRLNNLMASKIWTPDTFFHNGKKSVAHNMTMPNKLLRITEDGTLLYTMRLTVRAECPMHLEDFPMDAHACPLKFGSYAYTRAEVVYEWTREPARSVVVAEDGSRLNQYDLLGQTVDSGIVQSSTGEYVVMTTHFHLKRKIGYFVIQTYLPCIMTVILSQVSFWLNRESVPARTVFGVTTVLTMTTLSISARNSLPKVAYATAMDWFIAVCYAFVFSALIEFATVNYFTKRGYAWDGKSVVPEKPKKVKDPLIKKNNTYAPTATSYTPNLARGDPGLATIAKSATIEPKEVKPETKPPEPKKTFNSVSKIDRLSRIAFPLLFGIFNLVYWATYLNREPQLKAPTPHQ
# T1 sequence (P47870 25-512 limits assumed): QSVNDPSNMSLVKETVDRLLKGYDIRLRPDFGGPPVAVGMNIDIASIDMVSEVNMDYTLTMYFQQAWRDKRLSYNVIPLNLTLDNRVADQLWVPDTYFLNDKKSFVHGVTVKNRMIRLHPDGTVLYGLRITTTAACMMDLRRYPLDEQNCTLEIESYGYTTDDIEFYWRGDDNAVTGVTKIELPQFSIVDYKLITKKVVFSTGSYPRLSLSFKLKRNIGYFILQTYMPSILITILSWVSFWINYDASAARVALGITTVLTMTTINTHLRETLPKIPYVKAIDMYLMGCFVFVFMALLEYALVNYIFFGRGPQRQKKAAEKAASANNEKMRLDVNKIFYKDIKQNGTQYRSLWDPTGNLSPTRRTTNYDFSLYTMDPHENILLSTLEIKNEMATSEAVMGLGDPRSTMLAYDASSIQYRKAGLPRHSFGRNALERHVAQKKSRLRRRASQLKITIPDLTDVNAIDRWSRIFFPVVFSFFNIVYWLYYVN
# T1 sequence (P18507 40-475): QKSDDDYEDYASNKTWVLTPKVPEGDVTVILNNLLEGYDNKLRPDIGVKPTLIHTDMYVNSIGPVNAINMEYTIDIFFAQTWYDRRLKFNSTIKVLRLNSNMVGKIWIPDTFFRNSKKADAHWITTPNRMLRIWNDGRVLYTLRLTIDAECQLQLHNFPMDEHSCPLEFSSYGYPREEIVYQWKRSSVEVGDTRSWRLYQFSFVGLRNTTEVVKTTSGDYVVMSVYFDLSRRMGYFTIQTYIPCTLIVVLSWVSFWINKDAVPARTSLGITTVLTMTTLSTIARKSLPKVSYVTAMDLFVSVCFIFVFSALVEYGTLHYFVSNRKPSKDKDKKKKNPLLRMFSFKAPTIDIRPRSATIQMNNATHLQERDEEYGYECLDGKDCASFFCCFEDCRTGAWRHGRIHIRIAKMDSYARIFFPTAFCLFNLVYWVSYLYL
# Experimental: (§1) Carbamazepine (CBZ) aggravates absence seizures in ‘generalized absence epilepsy rats from. Strasbourg’. One putative mechanism for the aggravation is through its reported potentiation of GABAA currents. A study was carried out to determine the effect of eslicarbazepine, R-licarbazepine and carbamazepine on sub-maximal GABA currents in Ltk cells stably expressing α1β2γ2, α2β2γ2, α3β2γ2 or α5β2γ2 GABA-receptors. The whole-cell patch-clamp technique was used to investigate the effects of the test compounds on GABAA receptors.
# (§2) Used Ltk cells were stably transfected with recombinant GABAA cDNAs: α1β2γ2, α2β2γ2, α3β2γ2 or α5β2γ2 (B'SYS GmbH, Switzerland). […] For the electrophysiological experiments cells were cultivated, at a density that enabled single cells to be measured, in medium without antibiotics or antimycotics. Cells were tested 24-48 hours following induction of transgene expression with dexamethasone.
# (§3) The whole-cell patch clamp recordings from transfected Ltk cells (voltage-clamped at a holding potential of −80 mV) were made using a EPC-7, HEKA Electronics amplifier. GABA inward-currents were measured upon application of 1 or 2 μM GABA to patch-clamped cells (at an EC5).
# (§4) Analysis of Variance (ANOVA) with post test multisample comparison (Dunnett) was conducted with GraphPad Prism 4 Software.
# α2β2γ2 GABA receptors = target: T2, α2β2γ2 GABA receptors (Homo sapiens, UniProt P18507+P47869+P47870); experiment: as above; format: cell-based; settings: Table 1
# T2 construct: host or cells: Ltk cells, expression induced with dexamethasone
# T2 sequence (P47869 29-451): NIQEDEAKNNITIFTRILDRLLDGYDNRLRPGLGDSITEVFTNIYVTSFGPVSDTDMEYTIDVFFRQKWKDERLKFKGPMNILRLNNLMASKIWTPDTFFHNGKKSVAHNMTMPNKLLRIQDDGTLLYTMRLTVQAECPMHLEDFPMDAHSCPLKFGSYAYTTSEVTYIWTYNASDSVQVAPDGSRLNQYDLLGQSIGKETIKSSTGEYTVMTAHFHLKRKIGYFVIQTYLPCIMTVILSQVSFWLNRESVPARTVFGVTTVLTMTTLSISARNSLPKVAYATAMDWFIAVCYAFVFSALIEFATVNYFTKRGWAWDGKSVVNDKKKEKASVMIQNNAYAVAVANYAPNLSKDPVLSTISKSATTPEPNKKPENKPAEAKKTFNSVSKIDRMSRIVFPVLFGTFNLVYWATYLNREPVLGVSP
# T2 sequence (P47870 25-512 limits assumed): as the sequence (P47870 25-512 limits assumed) above
# T2 sequence (P18507 40-475): as the sequence (P18507 40-475) above
# Experimental: as §1, §2, §3, §4
# α3β2γ2 GABA receptors = target: T3, α3β2γ2 GABA receptors (Homo sapiens, UniProt P18507+P34903+P47870); experiment: as above; format: cell-based; settings: Table 1
# T3 construct: host or cells: Ltk cells, expression induced with dexamethasone
# Experimental: as §1, §2, §3, §4
# α5β2γ2 GABA receptors = target: T4, α5β2γ2 GABA receptors (Homo sapiens, UniProt P18507+P31644+P47870); experiment: as above; format: cell-based; settings: Table 1
# T4 construct: host or cells: Ltk cells, expression induced with dexamethasone
# T4 sequence (P31644 32-462): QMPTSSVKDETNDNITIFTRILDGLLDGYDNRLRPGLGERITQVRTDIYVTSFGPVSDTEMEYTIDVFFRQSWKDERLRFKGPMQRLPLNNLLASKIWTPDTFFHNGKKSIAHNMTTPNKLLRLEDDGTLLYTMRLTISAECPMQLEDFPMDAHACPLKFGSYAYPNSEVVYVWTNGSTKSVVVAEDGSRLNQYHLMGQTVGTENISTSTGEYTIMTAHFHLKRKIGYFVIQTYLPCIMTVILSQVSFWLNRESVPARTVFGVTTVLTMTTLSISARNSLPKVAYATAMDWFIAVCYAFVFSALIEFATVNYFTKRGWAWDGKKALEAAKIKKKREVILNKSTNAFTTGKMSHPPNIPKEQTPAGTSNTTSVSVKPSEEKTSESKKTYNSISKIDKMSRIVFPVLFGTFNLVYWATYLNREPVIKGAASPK
# T4 sequence (P47870 25-512 limits assumed): as the sequence (P47870 25-512 limits assumed) above
# T4 sequence (P18507 40-475): as the sequence (P18507 40-475) above
# Experimental: as §1, §2, §3, §4
# [1] = target: T5, human T-type calcium channels hCav3.2 (Homo sapiens, UniProt O95180); experiment: whole-cell patch-clamp, calcium peak currents in stably transfected HEK 293 cells; format: cell-based; settings: for Relative current amplitude (%): hCav3.2 in HEK 293 cells; for IC50: two site binding model
# T5 construct: expressed in transfected cells; host or cells: HEK 293 cells (European Collection of Animal Cell Culture)
# T5 sequence (O95180 whole entry): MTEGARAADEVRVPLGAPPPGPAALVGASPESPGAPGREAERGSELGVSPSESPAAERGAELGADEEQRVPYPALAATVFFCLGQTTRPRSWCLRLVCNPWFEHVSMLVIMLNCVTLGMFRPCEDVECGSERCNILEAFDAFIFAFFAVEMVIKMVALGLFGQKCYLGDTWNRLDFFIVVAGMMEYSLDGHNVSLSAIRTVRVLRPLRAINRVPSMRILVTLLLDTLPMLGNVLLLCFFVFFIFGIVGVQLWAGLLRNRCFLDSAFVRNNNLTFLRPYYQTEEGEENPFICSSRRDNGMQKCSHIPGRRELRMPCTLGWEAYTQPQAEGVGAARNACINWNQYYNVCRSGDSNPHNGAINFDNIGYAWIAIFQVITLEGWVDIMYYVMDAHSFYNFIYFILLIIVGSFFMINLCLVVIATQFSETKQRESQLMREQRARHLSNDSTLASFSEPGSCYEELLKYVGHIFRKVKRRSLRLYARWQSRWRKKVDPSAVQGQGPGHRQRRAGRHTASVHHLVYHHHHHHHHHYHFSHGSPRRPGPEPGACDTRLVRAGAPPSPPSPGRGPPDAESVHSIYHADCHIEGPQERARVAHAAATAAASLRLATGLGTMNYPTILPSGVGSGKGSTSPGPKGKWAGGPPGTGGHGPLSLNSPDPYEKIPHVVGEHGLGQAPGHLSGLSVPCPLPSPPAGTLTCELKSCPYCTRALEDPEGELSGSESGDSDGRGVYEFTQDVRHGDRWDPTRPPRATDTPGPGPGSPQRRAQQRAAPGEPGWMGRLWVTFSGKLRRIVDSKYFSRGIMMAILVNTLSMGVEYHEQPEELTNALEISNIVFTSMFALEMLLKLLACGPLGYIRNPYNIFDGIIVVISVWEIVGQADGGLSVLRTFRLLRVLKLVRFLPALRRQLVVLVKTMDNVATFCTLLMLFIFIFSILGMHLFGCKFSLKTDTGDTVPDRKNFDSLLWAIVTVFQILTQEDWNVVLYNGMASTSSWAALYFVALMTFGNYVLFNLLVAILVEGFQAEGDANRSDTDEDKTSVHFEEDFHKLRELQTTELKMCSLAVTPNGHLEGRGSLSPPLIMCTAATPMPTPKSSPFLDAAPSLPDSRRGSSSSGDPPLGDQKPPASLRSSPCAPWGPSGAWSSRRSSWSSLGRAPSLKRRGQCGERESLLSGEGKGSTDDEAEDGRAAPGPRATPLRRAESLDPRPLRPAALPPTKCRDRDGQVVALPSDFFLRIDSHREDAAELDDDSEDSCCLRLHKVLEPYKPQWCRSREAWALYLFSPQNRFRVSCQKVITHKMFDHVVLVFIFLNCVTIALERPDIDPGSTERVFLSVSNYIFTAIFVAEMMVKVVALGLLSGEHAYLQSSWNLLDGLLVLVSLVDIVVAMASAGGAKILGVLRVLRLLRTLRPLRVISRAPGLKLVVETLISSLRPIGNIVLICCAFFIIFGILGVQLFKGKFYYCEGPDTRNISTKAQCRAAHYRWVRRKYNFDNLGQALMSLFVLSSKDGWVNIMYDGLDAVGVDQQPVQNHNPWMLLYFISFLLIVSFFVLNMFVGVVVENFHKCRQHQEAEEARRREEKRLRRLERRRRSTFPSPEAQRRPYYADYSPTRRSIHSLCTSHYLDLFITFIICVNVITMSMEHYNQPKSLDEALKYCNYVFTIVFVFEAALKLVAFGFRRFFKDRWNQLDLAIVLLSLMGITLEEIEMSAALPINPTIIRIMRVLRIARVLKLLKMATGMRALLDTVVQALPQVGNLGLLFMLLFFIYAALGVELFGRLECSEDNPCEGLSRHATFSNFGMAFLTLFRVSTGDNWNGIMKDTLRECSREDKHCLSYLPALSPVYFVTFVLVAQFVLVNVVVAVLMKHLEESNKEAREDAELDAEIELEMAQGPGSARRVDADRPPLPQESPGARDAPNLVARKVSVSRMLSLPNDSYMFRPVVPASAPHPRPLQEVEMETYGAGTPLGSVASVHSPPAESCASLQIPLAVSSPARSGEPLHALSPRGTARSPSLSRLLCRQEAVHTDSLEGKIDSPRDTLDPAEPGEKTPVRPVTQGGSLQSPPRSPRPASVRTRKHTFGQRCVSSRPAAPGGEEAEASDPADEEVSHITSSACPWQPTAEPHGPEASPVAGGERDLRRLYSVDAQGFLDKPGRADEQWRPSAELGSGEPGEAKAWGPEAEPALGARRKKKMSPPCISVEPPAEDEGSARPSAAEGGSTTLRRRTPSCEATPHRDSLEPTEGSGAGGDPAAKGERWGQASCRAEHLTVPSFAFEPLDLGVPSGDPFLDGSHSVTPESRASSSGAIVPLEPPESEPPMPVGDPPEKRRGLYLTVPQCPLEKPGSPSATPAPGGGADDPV
# Experimental: A study was carried out to determine the effect of eslicarbazepine.
# Cells were stably transfected with hCav3.2 cDNA.
# Calcium inward currents were measured upon depolarization of the cell membrane to −25 mV for 50 ms from a holding potential of −80 mV. This voltage protocol was run at intervals of 10 s until stabilization of evoked hCav3.2 currents. […] Vehicle was either bath solution or 0.2% DMSO.
# Analysis of variance (ANOVA) with post test multisample comparison (Dunnett) was conducted with GraphPad Prism 4 Software. IC50 were calculated with the equation: […]
# [2] = system: α1β2γ2, α2β2γ2, α3β2γ2 or α5β2γ2 GABA-receptors; experiment: overall effect on sub-maximal GABA currents (summary of Example 1); format: cell-based; settings: Ltk cells, all four receptor subtypes
# Experimental: as §1
# Used Ltk cells were stably transfected with recombinant GABAA cDNAs: α1β2γ2, α2β2γ2, α3β2γ2 or α5β2γ2 (B'SYS GmbH, Switzerland). Cells were maintained in a humidified atmosphere (95% relative humidity) with 5% CO2 and were grown in D-MEM/F-12 (1×, liquid, with GlutaMax 1) supplemented with 9% foetal bovine serum and 0.9% Penicillin/Streptomycin solution (Gibco BRL). For the electrophysiological experiments cells were cultivated, at a density that enabled single cells to be measured, in medium without antibiotics or antimycotics. Cells were tested 24-48 hours following induction of transgene expression with dexamethasone.
# Cells were continuously perfused with bath solution (NaCl 137 mM, KCl 4 mM, CaCl2 1.8 mM, MgCl2 1 mM, D-Glucose 10 mM HEPES 10 mM, pH 7.4). […] GABA inward-currents were measured upon application of 1 or 2 μM GABA to patch-clamped cells (at an EC5). […]
# absence seizure = experiment: mouse absence seizure models (γ-butyrolactone induced, SSADH null, stargazer, C3H/He); format: in vivo; settings: mice models (a)-(d)
# [3] = system: primary generalised tonic clonic seizure (PGTCS); experiment: randomised double-blind placebo controlled trial of adjunctive treatment in PGTCS; format: in vivo; settings: human patients, adjunct or monotherapy
# From the text: Clinical trial study: A randomised double-blind, placebo controlled, trial assesses the efficacy and safety of adjunctive eslicarbazepine acetate in primary generalised tonic clonic seizure (PGTCS) in human patients in accordance with established methods. Methods: Men and women are selected for trial according to standard inclusion criteria in the field including the following: • Subject is male or female and aged 6-65 years. • Subject has ≧3 PGTCS over the two months before screening and during the eight weeks Baseline Period with at least one seizure in each one month period. […] Trial endpoints assessed clinical criteria are as follows: • time to withdrawal after randomisation; • time to first, second, or other seizure after randomisation (time to first seizure after randomisation allows determination of the proportion of patients at different time points who remain seizure free); • time to achieving remission (e.g. at six months, one year, or two years); • change in seizure severity; • change in seizure frequency; • percentage response to treatment (response defined as a 50% or greater reduction in seizure frequency); • change in seizure-free interval; • change in seizure duration; • change in seizure pattern; • change in functional capacity; and • patient-related quality of life.
# [4] = 50 μM with GABA at EC5, Ltk cells
# [5] = 100 μM with GABA at EC5, Ltk cells
# [6] = 250 μM with GABA at EC5, Ltk cells
# [7] = 500 μM with GABA at EC5, Ltk cells
smiles,measurement,setting,value
"NC(=O)N1c2ccccc2C[C@H](O)c2ccccc21 [Eslicarbazepine, (S)-10-hydroxy-10,11-dihydro-5H-dibenz[b,f]azepine-5-carboxamide]",Current stimulation (%) α1β2γ2,α1β2γ2 GABA receptors; [4],103.3 ± 1.96%
same,Current stimulation (%) α1β2γ2,α1β2γ2 GABA receptors; [5],95.92 ± 0.83%
same,Current stimulation (%) α1β2γ2,α1β2γ2 GABA receptors; [6],97.82 ± 1.13%
same,Current stimulation (%) α1β2γ2,α1β2γ2 GABA receptors; [7],99.39 ± 0.80%
same,Current stimulation (%) α2β2γ2,α2β2γ2 GABA receptors; [4],91.58 ± 2.69%
same,Current stimulation (%) α2β2γ2,α2β2γ2 GABA receptors; [5],97.04 ± 2.65%
same,Current stimulation (%) α2β2γ2,α2β2γ2 GABA receptors; [6],88.56 ± 3.24 %
same,Current stimulation (%) α2β2γ2,α2β2γ2 GABA receptors; [7],89.80 ± 4.01%
same,Current stimulation (%) α3β2γ2,α3β2γ2 GABA receptors; [4],95.61 ± 4.75%
same,Current stimulation (%) α3β2γ2,α3β2γ2 GABA receptors; [5],97.93 ± 4.22%
same,Current stimulation (%) α3β2γ2,α3β2γ2 GABA receptors; [6],96.44 ± 2.16%
same,Current stimulation (%) α3β2γ2,α3β2γ2 GABA receptors; [7],91.63 ± 5.56%
same,Current stimulation (%) α5β2γ2,α5β2γ2 GABA receptors; [4],95.18 ± 2.18%
same,Current stimulation (%) α5β2γ2,α5β2γ2 GABA receptors; [5],93.89 ± 0.60%
same,Current stimulation (%) α5β2γ2,α5β2γ2 GABA receptors; [6],93.52 ± 1.75%
same,Current stimulation (%) α5β2γ2,α5β2γ2 GABA receptors; [7],89.65 ± 3.44%
same,effect on hCav3.2 calcium peak currents (in words),[1],dose dependently inhibited; also recorded: effectively inhibits high and low affinity hCav3.2 inward currents
same,Relative current amplitude (%),[1]; 0.3 μM,86.99 ± 1.56 %
same,Relative current amplitude (%),[1]; 1 μM,81.61 ± 1.31 %
same,Relative current amplitude (%),[1]; 3 μM,76.21 ± 1.61 %
same,Relative current amplitude (%),[1]; 10 μM,71.22 ± 2.40 %
same,Relative current amplitude (%),[1]; 30 μM,73.04 ± 1.64 %
same,Relative current amplitude (%),[1]; 50 μM,61.44 ± 4.96 %
same,Relative current amplitude (%),[1]; 100 μM,54.68 ± 6.35 %
same,Relative current amplitude (%),[1]; 250 μM,46.92 ± 6.64 %
same,Relative current amplitude (%),[1]; 500 μM,51.83 ± 4.77 %
same,Relative current amplitude (%),[1]; 1000 μM,45.48 ± 4.94 %
same,IC50,"[1]; high affinity fit, read-out: hCav3.2 IC50 (μM) High affinity",0.43 µM
same,IC50,"[1]; low affinity fit, read-out: hCav3.2 IC50 (μM) Low affinity",62.6 µM
same,effects upon sub-maximal GABA currents (in words),[2],devoid of effects
same,controlling seizures in mouse absence seizure models,absence seizure,effective in controlling seizures
"CC(=O)O[C@H]1Cc2ccccc2N(C(N)=O)c2ccccc21 [eslicarbazepine acetate, (S)-10-acetoxy-10,11-dihydro-5H-dibenz[b,f]azepine-5-carboxamide]",controlling seizures in mouse absence seizure models,absence seizure,effective in controlling seizures
same,clinical effects in patients suffering from or susceptible to PGTCS,[3],improved clinical effects
